The experiment concerns aqueous tear production. As to the kind of experiment: Schirmer tear test in dogs with aqueous tear deficiency / KCS. Type of experiment: in vivo, dog. The text has this: The Schirmer tear test is a test of aqueous tear production. The test depends upon observing the extent of wetting of a strip of filter paper placed over the lower lid of an eye for a specified time. Standardized strips are commercially available. The strip is folded at a notched marking and is then placed over the edge of the lateral one-third of the eyelid. The strip is usually left in place for a period of time while the patient looks straight ahead in dim light.
The degree of wetting of the paper is measured in mm from the notch. For human patients, a normal end point is 5 mm of wetting at five minutes. For canine patients, the normal tear production is 14 to 20 mm. of wetting at one minute.

Where [1] appears, read: Example 3 English Bulldog, three drops of 2% pilocarpine by mouth, after two hours.

With `C[C@@H]1C[C@H]2[C@@H]3CCC4=CC(=O)C=C[C@]4(C)[C@@]3(F)[C@@H](O)C[C@]2(C)[C@@]1(O)C(=O)CO` [dexamethasone], under “Example 1 Poodle, topical, both eyes twice daily for nine weeks”, the “benefit of treatment (tear deficiency, conjunctivitis)” value was “without benefit”.
For `CC[C@@H]1C(=O)OC[C@@H]1Cc1cncn1C` [pilocarpine], under setting [1], the “Schirmer tear test value, left eye” value is 10 mm/minute and the “Schirmer tear test value, right eye” value is 0 mm/minute. Moreover, the “Schirmer tear test values, both eyes” value (Example 4 Miniature Poodle, one drop 2% pilocarpine by mouth two times daily with ophthalmic petrolatum, after two weeks) was 0 mm/minute.

The values are drawn from US4839342A, “Method of increasing tear production by topical administration of cyclosporin” (University of Georgia Research Foundation, Inc., priority 1987, dated 1989).
